Test results: ChEMBL document CHEMBL3885861, “Open TG-GATES”
Values joined by “and” are separate entries in the source; they are usually repeats but may differ in a detail not shown here. Equal values may be shown once.

Species: Rattus norvegicus
Assay: Open TG-GATES - Regimen: Single
Assay type: toxicity, organism-based, Sprague-Dawley
Parameters: regimen Single, gender Male, age 6 weeks
Details: in vivo, po, route gavage
[1] = 0 mg/kg, 24 h, tissue Plasma, dose level Control
[2] = 10 mg/kg, 3 h, tissue Blood, dose level Low
[3] = 10 mg/kg, 3 h, tissue Kidney, dose level Low
[4] = 10 mg/kg, 3 h, tissue Plasma, dose level Low
[5] = 10 mg/kg, 6 h, tissue Blood, dose level Low

O=C1CN(/N=C/c2ccc([N+](=O)[O-])o2)C(=O)N1 [NITROFURANTOIN]
ALT [1]: 40.2 IU/L and 32.2 IU/L
AST [1]: 67 IU/L and 61.8 IU/L
BUN [1]: 15.6 mg/dL and 16 mg/dL
CRE [1]: 0.4 mg/dL
Ca [1]: 10.9 mg/dL and 11.3 mg/dL
Cl [1]: 101.4 meq/L and 105.8 meq/L
GLC [1]: 211.2 mg/dL and 198.2 mg/dL
IP [1]: 7.6 mg/dL and 9.2 mg/dL
K [1]: 4 meq/L and 4.4 meq/L
LDH [1]: 161.6 IU/L and 69.4 IU/L
Na [1]: 140 meq/L and 141 meq/L
PL [1]: 149.8 mg/dL and 148.2 mg/dL
RALB [1]: 3.2 g/dL and 3.9 g/dL
TC [1]: 76.4 mg/dL and 80.6 mg/dL
TG [1]: 110 mg/dL and 123 mg/dL
TP [1]: 5.6 g/dL and 5.5 g/dL
TERMINAL_BW (10 mg/kg, 3 h, dose level Low): 221.7 g
APTT [2]: 20.2 s
Bas [2]: 0%
Eos [2]: 1.2%
Fbg [2]: 216.6 mg/dL
Hb [2]: 13.5 g/dL
Ht [2]: 38.5%
Lym [2]: 77%
MCH [2]: 21.5 pg
MCHC [2]: 35.1%
MCV [2]: 61.3 fL
Mono [2]: 3%
Neu [2]: 17.4%
PT [2]: 12.5 s
Plat [2]: 112.9 x10_4/uL
RBC [2]: 628.8 x10_4/ul
Ret [2]: 7.4%
WBC [2]: 88.6 x10_2/uL
KIDNEY_L [3]: 1 g
KIDNEY_R [3]: 1 g
KIDNEY_TOTAL [3]: 2 g
LIVER (10 mg/kg, 3 h, tissue Liver, dose level Low): 10.3 g
A/G [4]: 1.6
ALP [4]: 999 IU/L
ALT [4]: 42.2 IU/L
AST [4]: 69.6 IU/L
BUN [4]: 12.2 mg/dL
CRE [4]: 0.3 mg/dL
Ca [4]: 10.8 mg/dL
Cl [4]: 101.8 meq/L
DBIL [4]: 0.076 mg/dL
GLC [4]: 194.8 mg/dL
IP [4]: 8.7 mg/dL
K [4]: 3.9 meq/L
LDH [4]: 198.6 IU/L
Na [4]: 141 meq/L
PL [4]: 141.2 mg/dL
RALB [4]: 3.3 g/dL
TBIL [4]: 0.1 mg/dL
TC [4]: 81 mg/dL
TG [4]: 67.4 mg/dL
TP [4]: 5.4 g/dL
gamma-GTP [4]: 0.8 IU/L
TERMINAL_BW (10 mg/kg, 6 h, dose level Low): 217.9 g
APTT [5]: 19.4 s
Bas [5]: 0%
Eos [5]: 1%
Fbg [5]: 222.2 mg/dL
Hb [5]: 13.6 g/dL
Ht [5]: 38.4%
Lym [5]: 76.2%
MCH [5]: 21.6 pg
MCHC [5]: 35.3%
MCV [5]: 61 fL
Mono [5]: 2.8%
Neu [5]: 18.4%
PT [5]: 12.7 s
Plat [5]: 121.4 x10_4/uL
